≈ marks a conversion by molar mass, not a printed value.
Tests used:
[1] = Solubility of compound by CLND method; assay type: physicochemical
[2] = Permeability of compound; assay type: ADME; conditions: not told; read-out: permeability
[3] = Clearance in Sprague-Dawley rat at 1 mg/kg, iv or 2 mg/kg, po; assay type: ADME, organism-based; conditions: in vivo
[4] = Oral bioavailability in Sprague-Dawley rat at 2 mg/kg; assay type: ADME, organism-based; conditions: in vivo; for bioavailability: Sprague-Dawley
[5] = AUC in Sprague-Dawley rat at 2 mg/kg, po; assay type: ADME, organism-based; conditions: in vivo
[6] = Half life in Sprague-Dawley rat at 1 mg/kg, iv or 2 mg/kg, po; assay type: ADME, organism-based; conditions: in vivo
[7] = Volume of distribution in Sprague-Dawley rat at 1 mg/kg, iv or 2 mg/kg, po; assay type: ADME, organism-based; conditions: in vivo
[8] = Volume of distribution in Sprague-Dawley rat at 0.5 mg/kg, iv or 2 mg/kg, po; assay type: ADME, organism-based; conditions: in vivo
[9] = Clearance in Sprague-Dawley rat at 0.5 mg/kg, iv or 2 mg/kg, po; assay type: ADME, organism-based; conditions: in vivo
[10] = Half life in Sprague-Dawley rat at 0.5 mg/kg, iv or 2 mg/kg, po; assay type: ADME, organism-based; conditions: in vivo

solubility kinetic [1] [µM]	Papp [2] [×10⁻⁶ cm/s]	SMILES	also measured
26 (≈ 12.3 µg/mL)	7.9	O=C(NC1CCN(S(=O)(=O)c2ccc(CN3CCCCC3)cc2)CC1)c1cc(C2CC2)on1	–
14 (≈ 7.49 µg/mL)	–	CN(CCCC(F)(F)F)[C@H]1CC[C@H](CS(=O)(=O)N2CCC(NC(=O)c3cc(C4CC4)on3)CC2)CC1	–
52 (≈ 26.1 µg/mL)	6.4	O=C(NC1CCN(S(=O)(=O)C[C@H]2CC[C@H](NCc3ccccn3)CC2)CC1)c1cc(C2CC2)on1	–
306 (≈ 100 µg/mL)	24	CCS(=O)(=O)N1CCC(NC(=O)c2cc(C3CC3)on2)CC1	–
126 (≈ 55.3 µg/mL)	< 1	CN(C)[C@H]1CC[C@H](CS(=O)(=O)N2CCC(NC(=O)c3cc(C4CC4)on3)CC2)CC1	–
4 (≈ 2.14 µg/mL)	18	O=C(NC1CCN(S(=O)(=O)C[C@H]2CC[C@H](NCc3cccc(Cl)c3)CC2)CC1)c1cc(C2CC2)on1	–
375 (≈ 128 µg/mL)	< 1	NCCS(=O)(=O)N1CCC(NC(=O)c2cc(C3CC3)on2)CC1	–
302 (≈ 134 µg/mL)	16	O=C(NC1CCN(S(=O)(=O)c2ccc(CN3CCC3)cc2)CC1)c1cc(C2CC2)on1	–
297 (≈ 154 µg/mL)	32	O=C(NC1CCN(S(=O)(=O)C[C@H]2CC[C@H](NCc3ccccc3F)CC2)CC1)c1cc(C2CC2)on1	F [4]: 65%; AUC [5]: 87 ng·h/mL; half-life [6]: 1.7 h; Vd [7]: 9.4 L/kg
26 (≈ 13 µg/mL)	4.5	O=C(NC1CCN(S(=O)(=O)C[C@H]2CC[C@H](NCc3ccncc3)CC2)CC1)c1cc(C2CC2)on1	–
122 (≈ 55.9 µg/mL)	13	O=C(NC1CCN(S(=O)(=O)c2ccc(CN3CCCC3)cc2)CC1)c1cc(C2CC2)on1	Vd [8]: 6.7 L/kg; AUC ([5]; Sprague-Dawley, read-out: AUC): 295 ng·h/mL; clearance [9]: 68 mL/min/kg; half-life [10]: 1.7 h
295 (≈ 129 µg/mL)	< 0.3	CCN[C@H]1CC[C@H](CS(=O)(=O)N2CCC(NC(=O)c3cc(C4CC4)on3)CC2)CC1	–
474 (≈ 188 µg/mL)	5.6	CN1CCC(S(=O)(=O)N2CCC(NC(=O)c3cc(C4CC4)on3)CC2)CC1	–
6 (≈ 3.21 µg/mL)	44	O=C(NC1CCN(S(=O)(=O)C[C@H]2CC[C@H](NCc3ccc(Cl)cc3)CC2)CC1)c1cc(C2CC2)on1	clearance [3]: 36 mL/min/kg; bioavailability [4]: 70%; AUC ([5]; Sprague-Dawley, read-out: AUC): 365 ng·h/mL; half-life [6]: 7.3 h; Vd [7]: 14.7 L/kg
329 (≈ 130 µg/mL)	< 1	N[C@H]1CC[C@H](S(=O)(=O)N2CCC(NC(=O)c3cc(C4CC4)on3)CC2)CC1	–
6 (≈ 3.21 µg/mL)	20	O=C(NC1CCN(S(=O)(=O)C[C@H]2CC[C@H](NCc3ccccc3Cl)CC2)CC1)c1cc(C2CC2)on1	–
21 (≈ 10.8 µg/mL)	17	Cc1cccc(CN[C@H]2CC[C@H](CS(=O)(=O)N3CCC(NC(=O)c4cc(C5CC5)on4)CC3)CC2)c1	–
61 (≈ 31.5 µg/mL)	8.9	Cc1ccc(CN[C@H]2CC[C@H](CS(=O)(=O)N3CCC(NC(=O)c4cc(C5CC5)on4)CC3)CC2)nc1	–
297 (≈ 126 µg/mL)	< 1	CN[C@H]1CC[C@H](CS(=O)(=O)N2CCC(NC(=O)c3cc(C4CC4)on3)CC2)CC1	–
3 (≈ 1.56 µg/mL)	–	O=C(NC1CCN(S(=O)(=O)C[C@H]2CC[C@H](NCc3ccc(F)cc3)CC2)CC1)c1cc(C2CC2)on1	–

More lines, now with the values behind:

SMILES	solubility kinetic [1] [µM]	Papp [2] [×10⁻⁶ cm/s]	also measured
CN(C)Cc1ccc(S(=O)(=O)N2CCC(NC(=O)c3cc(C4CC4)on3)CC2)cc1	130 (≈ 56.2 µg/mL)	20	–
N[C@H]1CC[C@@H](S(=O)(=O)N2CCC(NC(=O)c3cc(C4CC4)on3)CC2)CC1	420 (≈ 167 µg/mL)	< 1	–
CC(C)(C)CN[C@H]1CC[C@H](CS(=O)(=O)N2CCC(NC(=O)c3cc(C4CC4)on3)CC2)CC1	367 (≈ 176 µg/mL)	14	–
O=C(NC1CCN(S(=O)(=O)C[C@H]2CC[C@H](NCc3cccnc3)CC2)CC1)c1cc(C2CC2)on1	194 (≈ 97.3 µg/mL)	5.5	–
O=C(NC1CCN(S(=O)(=O)C[C@H]2CC[C@H](NCc3ccc(F)cn3)CC2)CC1)c1cc(C2CC2)on1	141 (≈ 73.3 µg/mL)	19	clearance [3]: 17 mL/min/kg; bioavailability [4]: 59%; AUC ([5]; Sprague-Dawley, read-out: AUC): 578 ng·h/mL; half-life [6]: 10.8 h; Vd [7]: 12 L/kg
O=C(NC1CCN(S(=O)(=O)C[C@H]2CC[C@H](NCCCC(F)(F)F)CC2)CC1)c1cc(C2CC2)on1	9 (≈ 4.69 µg/mL)	14	bioavailability [4]: 79%; Vd [8]: 18.9 L/kg; AUC ([5]; Sprague-Dawley, read-out: AUC): 676 ng·h/mL; clearance [9]: 20 mL/min/kg; half-life [10]: 12.8 h
O=C(NC1CCN(S(=O)(=O)C[C@H]2CC[C@H](NCc3ccccc3)CC2)CC1)c1cc(C2CC2)on1	1 (≈ 0.501 µg/mL)	–	bioavailability [4]: 79%; Vd [8]: 16.1 L/kg; AUC ([5]; Sprague-Dawley, read-out: AUC): 149 ng·h/mL; clearance [9]: 90 mL/min/kg; half-life [10]: 3.6 h
O=C(NC1CCN(S(=O)(=O)C[C@H]2CC[C@H](NCc3cc(F)ccn3)CC2)CC1)c1cc(C2CC2)on1	–	6.6	–
O=C(NC1CCN(S(=O)(=O)C[C@H]2CC[C@H](NCc3cccc(F)c3)CC2)CC1)c1cc(C2CC2)on1	277 (≈ 144 µg/mL)	20	–
CCCN[C@H]1CC[C@H](CS(=O)(=O)N2CCC(NC(=O)c3cc(C4CC4)on3)CC2)CC1	143 (≈ 64.7 µg/mL)	3.5	–
O=C(NC1CCN(S(=O)(=O)[C@H]2CC[C@H](NCCCC(F)(F)F)CC2)CC1)c1cc(C2CC2)on1	–	–	clearance [3]: 20 mL/min/kg; bioavailability [4]: 86%; AUC ([5]; Sprague-Dawley, read-out: AUC): 967 ng·h/mL; half-life [6]: 8.6 h; Vd [7]: 12.5 L/kg
N[C@H]1CC[C@H](CS(=O)(=O)N2CCC(NC(=O)c3cc(C4CC4)on3)CC2)CC1	297 (≈ 122 µg/mL)	< 1	–
Cc1ccc(CN[C@H]2CC[C@H](CS(=O)(=O)N3CCC(NC(=O)c4cc(C5CC5)on4)CC3)CC2)cc1	10 (≈ 5.15 µg/mL)	14	–
Cc1ccccc1CN[C@H]1CC[C@H](CS(=O)(=O)N2CCC(NC(=O)c3cc(C4CC4)on3)CC2)CC1	15 (≈ 7.72 µg/mL)	–	–
O=C(NC1CCN(S(=O)(=O)C2CCNCC2)CC1)c1cc(C2CC2)on1	515 (≈ 197 µg/mL)	0.69	bioavailability [4]: 27%; Vd [8]: 4.5 L/kg; AUC ([5]; Sprague-Dawley, read-out: AUC): 123 ng·h/mL; clearance [9]: 37 mL/min/kg; half-life [10]: 2.7 h
CCN1CCC(S(=O)(=O)N2CCC(NC(=O)c3cc(C4CC4)on3)CC2)CC1	502 (≈ 206 µg/mL)	5.2	–
NCCCCS(=O)(=O)N1CCC(NC(=O)c2cc(C3CC3)on2)CC1	385 (≈ 143 µg/mL)	< 1	–
O=C(NC1CCN(S(=O)(=O)C[C@H]2CC[C@H](NCc3ccc(Cl)cn3)CC2)CC1)c1cc(C2CC2)on1	14 (≈ 7.51 µg/mL)	22	–
O=C(NC1CCN(S(=O)(=O)C[C@H]2CC[C@H](NCc3cncc(F)c3)CC2)CC1)c1cc(C2CC2)on1	12 (≈ 6.24 µg/mL)	11	–
O=C(NC1CCN(S(=O)(=O)C2CCNC2)CC1)c1cc(C2CC2)on1 (stereo not given)	406 (≈ 150 µg/mL)	2.4	–
CCN(CCCC(F)(F)F)[C@H]1CC[C@H](CS(=O)(=O)N2CCC(NC(=O)c3cc(C4CC4)on3)CC2)CC1	53 (≈ 29.1 µg/mL)	41	–
CC(C)CN[C@H]1CC[C@H](CS(=O)(=O)N2CCC(NC(=O)c3cc(C4CC4)on3)CC2)CC1	434 (≈ 203 µg/mL)	6.1	–
CCCCN[C@H]1CC[C@H](CS(=O)(=O)N2CCC(NC(=O)c3cc(C4CC4)on3)CC2)CC1	234 (≈ 109 µg/mL)	6.8	–
NCc1ccc(S(=O)(=O)N2CCC(NC(=O)c3cc(C4CC4)on3)CC2)cc1	295 (≈ 119 µg/mL)	5.2	Vd [8]: 2.3 L/kg; clearance [9]: 311 mL/min/kg; half-life [10]: 0.2 h
CC(C)(C)CCN[C@H]1CC[C@H](CS(=O)(=O)N2CCC(NC(=O)c3cc(C4CC4)on3)CC2)CC1	10 (≈ 4.95 µg/mL)	18	–
O=C(NC1CCN(S(=O)(=O)C[C@H]2CC[C@H](NCCC(F)(F)F)CC2)CC1)c1cc(C2CC2)on1	48 (≈ 24.3 µg/mL)	16	–
NC[C@H]1CC[C@H](S(=O)(=O)N2CCC(NC(=O)c3cc(C4CC4)on3)CC2)CC1	479 (≈ 197 µg/mL)	< 1	–
O=C(NC1CCN(S(=O)(=O)CCCN2CCCC2)CC1)c1cc(C2CC2)on1	410 (≈ 168 µg/mL)	5	–

— ChEMBL document CHEMBL4334548, “Discovery of Isoxazole Amides as Potent and Selective SMYD3 Inhibitors” (ACS Med Chem Lett, 2020)
